Test results from patent US20170280720A1, “ARGININE […] INHIBITORS AND USES THEREOF” (EPIZYME, INC., priority 2014, published 2017).

Biological target: T1, Human CARM1 (PRMT4) (Homo sapiens, UniProt Q86X55)
T1 construct: Flag-CARM1-His; made in house; host or cells: HEK 293F cells (BacMam baculovirus, pFastBacMam)
T1 sequence (Q86X55 2-585 isoform Q86X55-1): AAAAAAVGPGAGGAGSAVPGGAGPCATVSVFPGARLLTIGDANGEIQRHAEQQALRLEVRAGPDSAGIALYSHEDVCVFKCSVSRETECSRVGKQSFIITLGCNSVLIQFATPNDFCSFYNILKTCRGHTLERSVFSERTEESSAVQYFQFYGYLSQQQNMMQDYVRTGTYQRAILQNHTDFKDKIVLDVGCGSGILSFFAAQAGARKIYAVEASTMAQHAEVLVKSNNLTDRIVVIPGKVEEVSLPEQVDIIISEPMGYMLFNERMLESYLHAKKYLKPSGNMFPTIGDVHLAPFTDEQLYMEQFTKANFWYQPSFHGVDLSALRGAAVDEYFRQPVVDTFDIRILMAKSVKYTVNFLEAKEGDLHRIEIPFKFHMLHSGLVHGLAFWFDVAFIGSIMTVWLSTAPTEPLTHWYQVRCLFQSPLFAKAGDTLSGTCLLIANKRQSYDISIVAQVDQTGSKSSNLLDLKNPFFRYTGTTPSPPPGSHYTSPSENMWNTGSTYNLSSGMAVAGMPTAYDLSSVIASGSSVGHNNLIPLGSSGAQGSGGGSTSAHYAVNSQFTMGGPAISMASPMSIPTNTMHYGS
Test: CARM1 biochemical assay (3H-SAM Flashplate, peptide substrate)
Settings: read-out: CARM1_ IC50
How it was run: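 FLAG/His-tagged human CARM1 (isoform 1, Δ539-561, baculovirus-expressed), 0.25 nM, preincubated 30 min at room temperature with compound (2% DMSO) in 20 mM Bicine pH 7.6, then reacted with 30 nM 3H-SAM and 250 nM biotinylated H3 16-30 peptide (R26 monomethyl). Stopped with 300 uM cold SAM; labelled peptide captured on streptavidin Flashplate; % inhibition versus DMSO and 1 mM SAH controls fitted to a 4- or 3-parameter curve.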

IC50 | Structure (SMILES)
0.00477 µM | CN(CCN)Cc1cccc(-c2nc(N(C)C3CCOCC3)c3cnn(C4CC4)c3n2)c1 [Compound 119]
0.0356 µM | CNCCN(C)Cc1cccc(-c2cc(C(=O)NCc3cc(C)nn3C)c3cnn(C(C)C)c3n2)c1 [Compound 120]
0.0702 µM | CNCCN(C)Cc1cccc(-c2cc(NC)c3cnn(C(C)C)c3n2)c1 [Compound 121]
0.0135 µM | CNCCN(C)Cc1cccc(-c2cc(C(=O)NCCCCC(=O)NCc3ccn(C)n3)c3cnn(C(C)C)c3n2)c1 [Compound 122]
0.0296 µM | CNCCN(C)Cc1cccc(-c2cc(NC(=O)N(C)C)c3cnn(C(C)C)c3n2)c1 [Compound 123]
0.0755 µM | CNCCN(C)Cc1cccc(-c2cc(OC)c3cnn(C(C)C)c3n2)c1 [Compound 124]
0.0758 µM | CC(C)n1ncc2c(C(=O)N[C@@H](C)c3ccccc3)cc(-c3cccc(CNCCN)c3)cc21 [Compound 125]

More lines, now with the values behind:

Structure (SMILES) | IC50
CNCCN(C)Cc1cccc(-c2cc(C(=O)NCCCCCC(=O)NCC3CCOCC3)c3cnn(C(C)C)c3n2)c1 [Compound 112] | 0.0239 µM
CNCCN(C)Cc1cccc(-c2nc(NC3CC3)c3cnn(C4CC4)c3n2)c1 [Compound 114] | 0.0179 µM
COc1ccccc1-c1nc2ccc(-c3ccc(CNCCN)cc3)cc2[nH]1 [Compound 115] | 6.87 µM
CC(C)n1ncc2c(NC(=O)N(C)C)cc(-c3cccc(CN(C)CCN)c3)nc21 [Compound 116] | 0.0234 µM
CNCCN(C)Cc1cccc(-c2cc(C(=O)NCCCCCC(=O)NCc3ccn(C)n3)c3cnn(C(C)C)c3n2)c1 [Compound 117] | 0.0334 µM
CNCCN(C)Cc1cccc(-c2cc(C(=O)NCCCCC(=O)NCC3CCOCC3)c3cnn(C(C)C)c3n2)c1 [Compound 118] | 0.018 µM
